Results from ChEMBL document CHEMBL4813934, “Investigation of Selected Flavonoid Derivatives as Potent FLT3 Inhibitors for the Potential Treatment of Acute Myeloid Leukemia” (J Nat Prod, 2021).
pIC50: −log10 of the molar value. Active and inactive are the calls of the source. The rule behind the calls is not given here.

How the values were obtained:
[1] = tested on: MV4-11; experiment: Cell cycle arrest in human MV4-11 cells assessed as increase in accumulation at sub-G1 phase at 30 uM measured after 72 hrs by propidium iodide/RNaseA staining based flow cytometry analysis; format: functional
[2] = target: Receptor-type tyrosine-protein kinase FLT3 (Homo sapiens, UniProt P36888, D835Y); experiment: Inhibition of recombinant His-tagged human FLT3 D835Y mutant (564 to 958 residues) expressed in baculovirus expression system using tyr 02 as substrate incubated for 1 hr by Z'-LYTE assay
[3] = target: T1, Receptor-type tyrosine-protein kinase FLT3 (Homo sapiens, UniProt P36888); experiment: Inhibition of recombinant His-tagged human FLT3 (564 to 958 residues) expressed in baculovirus expression system using tyr 02 as substrate incubated for 1 hr by Z'-LYTE assay
T1 sequence (P36888 whole entry): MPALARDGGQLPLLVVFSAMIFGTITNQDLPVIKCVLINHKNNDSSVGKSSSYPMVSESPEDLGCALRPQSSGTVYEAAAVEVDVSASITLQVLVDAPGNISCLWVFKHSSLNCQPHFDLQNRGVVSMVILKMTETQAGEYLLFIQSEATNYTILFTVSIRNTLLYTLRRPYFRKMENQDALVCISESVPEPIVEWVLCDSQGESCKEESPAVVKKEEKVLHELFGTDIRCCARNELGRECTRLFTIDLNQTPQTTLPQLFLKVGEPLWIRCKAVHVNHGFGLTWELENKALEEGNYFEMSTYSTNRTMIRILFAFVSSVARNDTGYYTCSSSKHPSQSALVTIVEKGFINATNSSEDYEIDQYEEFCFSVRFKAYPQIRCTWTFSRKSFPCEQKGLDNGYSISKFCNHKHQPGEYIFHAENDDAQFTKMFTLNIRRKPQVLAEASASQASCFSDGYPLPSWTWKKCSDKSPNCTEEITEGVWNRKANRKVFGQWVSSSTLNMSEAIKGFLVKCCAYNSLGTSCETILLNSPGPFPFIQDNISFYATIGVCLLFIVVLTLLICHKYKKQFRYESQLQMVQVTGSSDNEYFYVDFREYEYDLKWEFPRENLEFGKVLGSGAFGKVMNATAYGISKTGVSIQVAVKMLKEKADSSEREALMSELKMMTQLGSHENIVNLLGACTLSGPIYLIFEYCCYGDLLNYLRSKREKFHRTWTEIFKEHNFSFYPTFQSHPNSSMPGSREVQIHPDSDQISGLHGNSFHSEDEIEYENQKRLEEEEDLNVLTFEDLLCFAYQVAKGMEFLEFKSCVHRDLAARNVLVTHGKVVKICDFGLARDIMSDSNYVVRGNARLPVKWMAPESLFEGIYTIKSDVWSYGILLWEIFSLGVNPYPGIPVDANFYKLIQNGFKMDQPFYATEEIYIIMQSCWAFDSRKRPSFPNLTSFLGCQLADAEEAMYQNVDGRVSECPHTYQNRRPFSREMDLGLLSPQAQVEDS

[4] = tested on: MOLM-13; experiment: Cytotoxicity against human MOLM-13 cells assessed as reduction in cell viability measured after 72 hrs by MTT assay; format: functional, cell-based; details: MOLM-13, 72 h
[5] = target: Receptor-type tyrosine-protein kinase FLT3 (Homo sapiens, UniProt P36888, ITD); experiment: Inhibition of recombinant N-terminal GST/His6-tagged human FLT3 ITD mutant (571 to 993 residues) expressed in Sf9 insect cells incubated for 1 hr by LanthaScreen assay
[6] = tested on: MV4-11; experiment: Cytotoxicity against human MV4-11 cells assessed as reduction in cell viability measured after 72 hrs by MTT assay; format: functional, cell-based; details: MV4-11, 72 h
[7] = tested on: MOLM-13; experiment: Cell cycle arrest in human MOLM-13 cells assessed as accumulation at G0/G1 phase at 0.3 to 3 uM measured after 72 hrs by propidium iodide/RNaseA staining based flow cytometry analysis; format: functional; details: dose 0.3-3 µM
[8] = target: Receptor-type tyrosine-protein kinase FLT3 (Homo sapiens) (UniProt P36888); experiment: Inhibition of recombinant His-tagged human FLT3 (564 to 958 residues) expressed in baculovirus expression system at 10 uM using tyr 02 as substrate incubated for 1 hr by Z'-LYTE assay relative to control
[9] = tested on: MOLM-13; experiment: Cell cycle arrest in human MOLM-13 cells assessed as accumulation at sub-G1 phase at 3 uM measured after 72 hrs by propidium iodide/RNaseA staining based flow cytometry analysis (reference value: 13.76 %); format: functional
[10] = tested on: MV4-11; experiment: Cell cycle arrest in human MV4-11 cells assessed as accumulation at sub-G1 phase at 30 uM measured after 72 hrs by propidium iodide/RNaseA staining based flow cytometry analysis (reference value: 7.43 %); format: functional
[11] = tested on: MV4-11; experiment: Cell cycle arrest in human MV4-11 cells assessed as accumulation at G0/G1 phase at 10 uM measured after 72 hrs by propidium iodide/RNaseA staining based flow cytometry analysis (reference value: 50.06 %); format: functional
[12] = tested on: MV4-11; experiment: Cell cycle arrest in human MV4-11 cells assessed as accumulation at G0/G1 phase at 0.3 uM measured after 72 hrs by propidium iodide/RNaseA staining based flow cytometry analysis (reference value: 50.06 %); format: functional
[13] = tested on: MOLM-13; experiment: Cell cycle arrest in human MOLM-13 cells assessed as accumulation at sub-G1 phase at 0.3 uM measured after 72 hrs by propidium iodide/RNaseA staining based flow cytometry analysis (reference value: 13.76 %); format: functional
[14] = tested on: MV4-11; experiment: Cell cycle arrest in human MV4-11 cells assessed as accumulation at G2/M phase at 30 uM measured after 72 hrs by propidium iodide/RNaseA staining based flow cytometry analysis (reference value: 26.26 %); format: functional
[15] = tested on: MOLM-13; experiment: Cell cycle arrest in human MOLM-13 cells assessed as accumulation at G0/G1 phase at 3 uM measured after 72 hrs by propidium iodide/RNaseA staining based flow cytometry analysis (reference value: 53.92 %); format: functional
[16] = tested on: MOLM-13; experiment: Cell cycle arrest in human MOLM-13 cells assessed as accumulation at G2/M phase at 3 uM measured after 72 hrs by propidium iodide/RNaseA staining based flow cytometry analysis (reference value: 20.36 %); format: functional
[17] = tested on: MV4-11; experiment: Cell cycle arrest in human MV4-11 cells assessed as accumulation at sub-G1 phase at 3 uM measured after 72 hrs by propidium iodide/RNaseA staining based flow cytometry analysis (reference value: 7.43 %); format: functional
[18] = tested on: MOLM-13; experiment: Cell cycle arrest in human MOLM-13 cells assessed as accumulation at sub-G1 phase at 10 uM measured after 72 hrs by propidium iodide/RNaseA staining based flow cytometry analysis (reference value: 13.76 %); format: functional
[19] = tested on: MV4-11; experiment: Cell cycle arrest in human MV4-11 cells assessed as accumulation at sub-G1 phase at 0.3 uM measured after 72 hrs by propidium iodide/RNaseA staining based flow cytometry analysis (reference value: 7.43 %); format: functional
[20] = tested on: MV4-11; experiment: Cell cycle arrest in human MV4-11 cells assessed as accumulation at sub-G1 phase at 10 uM measured after 72 hrs by propidium iodide/RNaseA staining based flow cytometry analysis (reference value: 7.43 %); format: functional
[21] = tested on: MOLM-13; experiment: Cell cycle arrest in human MOLM-13 cells assessed as accumulation at S phase at 10 uM measured after 72 hrs by propidium iodide/RNaseA staining based flow cytometry analysis (reference value: 11.14 %); format: functional
[22] = tested on: MV4-11; experiment: Cell cycle arrest in human MV4-11 cells assessed as accumulation at G2/M phase at 0.3 uM measured after 72 hrs by propidium iodide/RNaseA staining based flow cytometry analysis (reference value: 26.26 %); format: functional
[23] = tested on: MOLM-13; experiment: Cell cycle arrest in human MOLM-13 cells assessed as accumulation at G2/M phase at 0.3 uM measured after 72 hrs by propidium iodide/RNaseA staining based flow cytometry analysis (reference value: 20.36 %); format: functional
[24] = tested on: MV4-11; experiment: Cell cycle arrest in human MV4-11 cells assessed as accumulation at S phase at 10 uM measured after 72 hrs by propidium iodide/RNaseA staining based flow cytometry analysis (reference value: 17.51 %); format: functional
[25] = tested on: MV4-11; experiment: Cell cycle arrest in human MV4-11 cells assessed as accumulation at S phase at 3 uM measured after 72 hrs by propidium iodide/RNaseA staining based flow cytometry analysis (reference value: 17.51 %); format: functional
[26] = tested on: MOLM-13; experiment: Cell cycle arrest in human MOLM-13 cells assessed as accumulation at G0/G1 phase at 10 uM measured after 72 hrs by propidium iodide/RNaseA staining based flow cytometry analysis (reference value: 53.92 %); format: functional
[27] = tested on: MV4-11; experiment: Cell cycle arrest in human MV4-11 cells assessed as accumulation at G2/M phase at 3 uM measured after 72 hrs by propidium iodide/RNaseA staining based flow cytometry analysis (reference value: 26.26 %); format: functional
[28] = tested on: MV4-11; experiment: Cell cycle arrest in human MV4-11 cells assessed as accumulation at S phase at 0.3 uM measured after 72 hrs by propidium iodide/RNaseA staining based flow cytometry analysis (reference value: 17.51 %); format: functional
[29] = tested on: MOLM-13; experiment: Cell cycle arrest in human MOLM-13 cells assessed as accumulation at sub-G1 phase at 30 uM measured after 72 hrs by propidium iodide/RNaseA staining based flow cytometry analysis (reference value: 13.76 %); format: functional
[30] = tested on: MV4-11; experiment: Cell cycle arrest in human MV4-11 cells assessed as accumulation at S phase at 30 uM measured after 72 hrs by propidium iodide/RNaseA staining based flow cytometry analysis (reference value: 17.51 %); format: functional
[31] = tested on: MOLM-13; experiment: Cell cycle arrest in human MOLM-13 cells assessed as accumulation at G2/M phase at 10 uM measured after 72 hrs by propidium iodide/RNaseA staining based flow cytometry analysis (reference value: 20.36 %); format: functional
[32] = tested on: MOLM-13; experiment: Cell cycle arrest in human MOLM-13 cells assessed as accumulation at G0/G1 phase at 30 uM measured after 72 hrs by propidium iodide/RNaseA staining based flow cytometry analysis (reference value: 53.92 %); format: functional
[33] = tested on: MOLM-13; experiment: Cell cycle arrest in human MOLM-13 cells assessed as accumulation at S phase at 30 uM measured after 72 hrs by propidium iodide/RNaseA staining based flow cytometry analysis (reference value: 11.14 %); format: functional
[34] = tested on: MOLM-13; experiment: Cell cycle arrest in human MOLM-13 cells assessed as accumulation at G0/G1 phase at 0.3 uM measured after 72 hrs by propidium iodide/RNaseA staining based flow cytometry analysis (reference value: 53.92 %); format: functional
[35] = tested on: MV4-11; experiment: Cell cycle arrest in human MV4-11 cells assessed as accumulation at G2/M phase at 10 uM measured after 72 hrs by propidium iodide/RNaseA staining based flow cytometry analysis (reference value: 26.26 %); format: functional
[36] = tested on: MOLM-13; experiment: Cell cycle arrest in human MOLM-13 cells assessed as accumulation at G2/M phase at 30 uM measured after 72 hrs by propidium iodide/RNaseA staining based flow cytometry analysis (reference value: 20.36 %); format: functional
[37] = tested on: MOLM-13; experiment: Cell cycle arrest in human MOLM-13 cells assessed as accumulation at S phase at 0.3 uM measured after 72 hrs by propidium iodide/RNaseA staining based flow cytometry analysis (reference value: 11.14 %); format: functional
[38] = tested on: MV4-11; experiment: Cell cycle arrest in human MV4-11 cells assessed as accumulation at G0/G1 phase at 30 uM measured after 72 hrs by propidium iodide/RNaseA staining based flow cytometry analysis (reference value: 50.06 %); format: functional
[39] = tested on: MOLM-13; experiment: Cell cycle arrest in human MOLM-13 cells assessed as accumulation at S phase at 3 uM measured after 72 hrs by propidium iodide/RNaseA staining based flow cytometry analysis (reference value: 11.14 %); format: functional
[40] = tested on: MV4-11; experiment: Cell cycle arrest in human MV4-11 cells assessed as accumulation at G0/G1 phase at 3 uM measured after 72 hrs by propidium iodide/RNaseA staining based flow cytometry analysis (reference value: 50.06 %); format: functional

COc1c(O)cc2oc(-c3ccc(O)cc3)cc(=O)c2c1O [HISPIDULIN]
Activity [1]: Active | pIC50 [2]: 6.64 | pIC50 [3]: 6.36 | pIC50 [4]: 5.15 | pIC50 [5]: 6.41 | pIC50 [6]: 5.17 | Activity [7]: Active | inhibition [8]: > 80%

COc1ccc(-c2cc(=O)c3c(O)c(OC)c(O)cc3o2)cc1 [PECTOLINARIGENIN]
pIC50 [2]: 6.24 | pIC50 [3]: 6.19 | pIC50 [4]: 5.23 | pIC50 [5]: 6.06 | pIC50 [6]: 5.10 | inhibition [8]: > 80%

COc1ccc(-c2cc(=O)c3c(O)c(OC)c(OC)cc3o2)cc1 [SALVIGENIN]
Activity [9]: 19.21% | Activity [1]: Active | Activity [10]: 9.4% | Activity [11]: 69.17% | Activity [12]: 50.11% | Activity [13]: 9.93% | Activity [14]: 11.25% | pIC50 [2]: 6.54 | Activity [15]: 59.78% | Activity [16]: 15.19% | Activity [17]: 6.83% | Activity [18]: 40.89% | Activity [19]: 6.78% | Activity [20]: 14.62% | Activity [21]: 5.4% | Activity [22]: 25.07% | Activity [23]: 20.25% | Activity [24]: 6.62% | Activity [25]: 8.74% | pIC50 [3]: 6.26 | Activity [26]: 42.74% | Activity [27]: 14.37% | Activity [28]: 20.59% | pIC50 [4]: 5.59 | pIC50 [5]: 6.24 | Activity [29]: 43.19% | Activity [30]: 5.91% | Activity [31]: 11.15% | Activity [32]: 40.99% | Activity [33]: 4.05% | pIC50 [6]: 5.59 | Activity [7]: Active | Activity [34]: 59.22% | Activity [35]: 10.19% | Activity [36]: 11.69% | Activity [37]: 10.48% | Activity [38]: 73.88% | Activity [39]: 5.26% | Activity [40]: 70.55% | inhibition [8]: > 80%
